{
  "source": "patent US20240238269A1",
  "key": {"[1]": {"tested_on": "Novel coronavirus (SARS-COV-2)", "experiment": "Antiviral activity against Novel Coronavirus", "assay_type": "cell-based"}, "[2]": {"tested_on": "Chikungunya virus (CHIKV)", "experiment": "Antiviral activity against Chikungunya Virus", "assay_type": "cell-based"}, "Dengue Virus 2": {"tested_on": "Dengue Virus 2", "experiment": "Antiviral activity against Dengue Virus 2", "assay_type": "cell-based"}, "Influenza A H1N1": {"tested_on": "Influenza A H1N1", "experiment": "Antiviral activity against Influenza A H1N1", "assay_type": "cell-based"}, "[3]": {"tested_on": "Middle East Respiratory Syndrome Coronavirus (MERS-COV)", "experiment": "microbe, parasite or virus in culture", "assay_type": "cell-based", "conditions": "Vero 76"}, "[4]": {"tested_on": "Rift Valley Fever Virus (RVFV)", "experiment": "microbe, parasite or virus in culture", "assay_type": "cell-based"}, "Tacaribe Virus (TCRV)": {"tested_on": "Tacaribe Virus (TCRV)", "experiment": "microbe, parasite or virus in culture", "assay_type": "cell-based"}, "[5]": {"tested_on": "Human Coronavirus (α) 229E", "experiment": "Antiviral activity against Human Coronavirus (α)", "assay_type": "cell-based"}, "[6]": {"tested_on": "Human Coronavirus (β) OC43", "experiment": "Antiviral activity against Human Coronavirus (β)", "assay_type": "cell-based"}, "Herpes Simplex Virus 1": {"tested_on": "Herpes Simplex Virus 1", "experiment": "Antiviral activity against Herpes Simplex Virus 1", "assay_type": "cell-based"}, "Herpes Simplex Virus 2": {"tested_on": "Herpes Simplex Virus 2", "experiment": "Antiviral activity against Herpes Simplex Virus 2", "assay_type": "cell-based"}, "Varicella-zoster Virus": {"tested_on": "Varicella-zoster Virus", "experiment": "Antiviral activity against Varicella-zoster Virus", "assay_type": "cell-based"}, "[7]": {"tested_on": "human papillomavirus (HPV)", "experiment": "Antiviral activity against human papillomavirus (HPV), overall conclusion", "assay_type": "cell-based", "description": "When the SI50 value>10, the compound was determined to be active against the virus."}, "other viruses": {"tested_on": "other viruses", "experiment": "Antiviral activity against other (non-HPV) viruses, overall conclusion", "assay_type": "cell-based"}, "HPV11 [8]": {"tested_on": "HPV11", "conditions": "Human Papillomavirus 11 HE611260.1, C-33 A"}, "HPV16 [9]": {"tested_on": "HPV16", "conditions": "Human Papillomavirus 16 KP212151.1, C-33 A"}, "HPV18 [10]": {"tested_on": "HPV18", "conditions": "Human Papillomavirus 18 KC470230.1, C-33 A"}, "Huh7": {"tested_on": "Huh7", "conditions": "human"}, "in vitro [11]": {"experiment": "in vitro", "conditions": "human"}, "in vitro [12]": {"experiment": "in vitro", "conditions": "human", "remark": "listed apart in the source"}, "in vitro [13]": {"experiment": "in vitro", "conditions": "dog"}, "in vitro [14]": {"experiment": "in vitro", "conditions": "African green monkey"}, "in vitro [15]": {"experiment": "in vitro", "conditions": "human", "remark": "listed apart in the source"}, "HPV11 [16]": {"tested_on": "HPV11", "experiment": "microbe, parasite or virus in culture", "conditions": "human papillomavirus 11, C-33-A"}, "HPV16 [17]": {"tested_on": "HPV16", "experiment": "microbe, parasite or virus in culture", "conditions": "Human papillomavirus 16, C-33-A"}, "HPV18 [18]": {"tested_on": "HPV18", "experiment": "microbe, parasite or virus in culture", "conditions": "human papillomavirus 18, C-33-A"}, "HPV6": {"tested_on": "HPV6", "experiment": "HPV6 transient transfection reporter plasmid replication assay", "conditions": "for EC50 / EC90: Alphapapillomavirus 10, C-33-A"}, "[19]": {"conditions": "Human Papillomavirus 16 KP212151.1, C-33 A, 0.001-250 μM"}, "[20]": {"conditions": "Human Papillomavirus 16 KP212151.1, C-33 A, 0.048-150 μM"}, "[21]": {"conditions": "Human Papillomavirus 6 FR751330.1, C-33 A"}, "[22]": {"conditions": "HPV16 strain KP212151.1, C-33 A, concentration range 0.001-250 μM"}},
  "note": "Read-outs that look alike come from different tables or passages of the source.",
  "data": [
    {"smiles": "O=[N+]([O-])c1ccc(O)c2ncccc12", "values": [
      {"measurement": "SI50 (CC50/EC50)", "setting": "[1]", "result": 3.1},
      {"measurement": "EC50", "setting": "[1]; Severe acute respiratory syndrome coronavirus 2, Vero 76", "result": 0.32, "unit": "µg/mL"},
      {"measurement": "SI50 (CC50/EC50)", "setting": "[2]", "result": 0},
      {"measurement": "EC50", "setting": "[2]; Chikungunya virus, Vero 76", "result": "> 0.86", "unit": "µg/mL"},
      {"measurement": "SI50 (CC50/EC50)", "setting": "Dengue Virus 2", "result": 1.3},
      {"measurement": "EC50", "setting": "Dengue Virus 2; Dengue virus, Huh-7", "result": 0.32, "unit": "µg/mL"},
      {"measurement": "SI50 (CC50/EC50)", "setting": "Influenza A H1N1", "result": 3.8},
      {"measurement": "EC50", "setting": "Influenza A H1N1; Influenza A virus, H1N1, MDCK", "result": 0.32, "unit": "µg/mL"},
      {"measurement": "SI50 (CC50/EC50)", "setting": "[3]; MERS Coronavirus EMC", "result": 0},
      {"measurement": "EC50", "setting": "[3]; Middle East respiratory syndrome-related coronavirus", "result": "> 0.32", "unit": "µg/mL"},
      {"measurement": "SI50 (CC50/EC50)", "setting": "[4]; Rift Valley Fever Virus MP-12, Vero 76", "result": 1},
      {"measurement": "EC50", "setting": "[4]; Rift Valley fever virus, Vero 76", "result": "> 0.16", "unit": "µg/mL"},
      {"measurement": "EC50", "setting": "Tacaribe Virus (TCRV); Mammarenavirus tacaribeense, Vero", "result": "< 0.1", "unit": "µg/mL"},
      {"measurement": "SI50 (CC50/EC50)", "setting": "Tacaribe Virus (TCRV); Tacaribe Virus TRVL 11573, Vero", "result": 1},
      {"measurement": "SI50 (CC50/EC50)", "setting": "[5]", "result": 1.3},
      {"measurement": "EC50", "setting": "[5]; unidentified human coronavirus, Huh-7", "result": 0.32, "unit": "µg/mL"},
      {"measurement": "SI50 (CC50/EC50)", "setting": "[6]", "result": 0},
      {"measurement": "EC50", "setting": "[6]; unidentified human coronavirus, OC43", "result": "> 0.37", "unit": "µg/mL"},
      {"measurement": "SI50 (CC50/EC50)", "setting": "Herpes Simplex Virus 1", "result": "<3.0"},
      {"measurement": "EC50", "setting": "Herpes Simplex Virus 1; Human alphaherpesvirus 1", "result": "> 1.2", "unit": "µM"},
      {"measurement": "SI50 (CC50/EC50)", "setting": "Herpes Simplex Virus 2", "result": "<4"},
      {"measurement": "EC50", "setting": "Herpes Simplex Virus 2; Human alphaherpesvirus 2", "result": "> 1.2", "unit": "µM"},
      {"measurement": "SI50 (CC50/EC50)", "setting": "Varicella-zoster Virus", "result": "<3"},
      {"measurement": "EC50", "setting": "Varicella-zoster Virus; Human alphaherpesvirus 3", "result": "> 0.24", "unit": "µM"},
      {"measurement": "antiviral activity compared with the positive control drug", "setting": "[7]; HPV, Tables 1 and 2", "result": "better than that of the positive control drug"},
      {"measurement": "inhibitory activity against HPV", "setting": "[7]; active when SI50 value>10", "result": "specific inhibitory activity against HPV"},
      {"measurement": "inhibitory activity against other viruses", "setting": "other viruses", "result": "not observed against other viruses"},
      {"measurement": "SI50 (CC50/EC50)", "setting": "HPV11 [8]", "result": 53},
      {"measurement": "SI90", "setting": "HPV11 [8]", "result": 19},
      {"measurement": "SI50 (CC50/EC50)", "setting": "HPV16 [9]; 0.001-250 μM", "result": 297},
      {"measurement": "SI90", "setting": "HPV16 [9]; 0.001-250 μM", "result": 143},
      {"measurement": "SI50 (CC50/EC50)", "setting": "HPV16 [9]; 0.048-150 μM", "result": 23},
      {"measurement": "SI90", "setting": "HPV16 [9]; 0.048-150 μM", "result": 13},
      {"measurement": "SI50 (CC50/EC50)", "setting": "HPV18 [10]", "result": 64},
      {"measurement": "SI90", "setting": "HPV18 [10]", "result": 16},
      {"measurement": "CC50", "setting": "Huh7", "result": 0.4, "unit": "µg/mL"},
      {"measurement": "CC50 at 48 h", "setting": "in vitro [11]", "result": 55.5, "unit": "µM"},
      {"measurement": "CC50", "setting": "in vitro [12]", "result": 0.42, "unit": "µg/mL"},
      {"measurement": "CC50", "setting": "in vitro [13]", "result": 1.2, "unit": "µg/mL"},
      {"measurement": "CC50", "setting": "in vitro [14]", "result": "< 0.1", "unit": "µg/mL"},
      {"measurement": "CC50", "setting": "in vitro [15]", "result": 0.37, "unit": "µg/mL"},
      {"measurement": "EC50", "setting": "HPV11 [16]", "result": 1.04, "unit": "µM"},
      {"measurement": "EC90", "setting": "HPV11 [16]", "result": 2.99, "unit": "µM"},
      {"measurement": "EC50", "setting": "HPV16 [17]; [19]", "result": 0.26, "unit": "µM"},
      {"measurement": "EC90", "setting": "HPV16 [17]; [19]", "result": 0.54, "unit": "µM"},
      {"measurement": "EC50", "setting": "HPV16 [17]; [20]", "result": 2.82, "unit": "µM"},
      {"measurement": "EC90", "setting": "HPV16 [17]; [20]", "result": 5.11, "unit": "µM"},
      {"measurement": "EC50", "setting": "HPV18 [18]", "result": 1.01, "unit": "µM"},
      {"measurement": "EC90", "setting": "HPV18 [18]", "result": 3.99, "unit": "µM"},
      {"measurement": "EC50", "setting": "HPV6", "result": 0.86, "unit": "µM"},
      {"measurement": "EC90", "setting": "HPV6", "result": 5.41, "unit": "µM"},
      {"measurement": "SI50 (CC50/EC50)", "setting": "HPV6; [21]", "result": 55},
      {"measurement": "SI90", "setting": "HPV6; [21]", "result": 9}
    ]},
    {"smiles": "Nc1nc2c(ncn2CCOCP(=O)(O)O)c(=O)[nH]1", "note": "[9-[2-(phosphonomethoxy)ethyl]guanine]", "values": [
      {"measurement": "EC50", "setting": "HPV11 [16]", "result": 1.03, "unit": "µM"},
      {"measurement": "EC90", "setting": "HPV11 [16]", "result": 4.47, "unit": "µM"},
      {"measurement": "EC50", "setting": "HPV16 [17]; [22]", "result": 0.28, "unit": "µM"},
      {"measurement": "EC90", "setting": "HPV16 [17]; [22]", "result": 2.3, "unit": "µM"},
      {"measurement": "EC50", "setting": "HPV18 [18]", "result": 0.63, "unit": "µM"},
      {"measurement": "EC90", "setting": "HPV18 [18]", "result": "> 150", "unit": "µM"},
      {"measurement": "EC50", "setting": "HPV6", "result": 0.56, "unit": "µM"},
      {"measurement": "EC90", "setting": "HPV6", "result": 6.35, "unit": "µM"}
    ]}
  ]
}
